Tests used:
[1] = test system: L. reuteri growth; test: Antimicrobial susceptibility profiling, broth microdilution MIC against clinically relevant antibiotics (EFSA cut offs); type: cell-based; design: unit not given here; conditions: for Minimum inhibitory concentration (MIC), L. reuteri PTA-126787: strain L. reuteri PTA-126787, two biological replicates; for Minimum inhibitory concentration (MIC), L. reuteri PTA-126788: strain L. reuteri PTA-126788, two biological replicates
Method: Antimicrobial susceptibility testing was performed using broth microdilution method, using LSB medium (Mueller Hinton broth containing 5% horse blood) following Clinical and Laboratory Standards Institute (CLSI, 28th edition) guidelines. Two-fold dilutions of the clinically relevant antibiotics (Clindamycin, Chloramphenicol, Erythromycin, Gentamicin, Kanamycin, Streptomycin, Tetracycline and Ampicillin, all purchased from Sigma Aldrich) were prepared in LSB medium. Approximately, 50 μL of 1×10^5 CFUs/mL of the L. reuteri cells were added into each well. “No antibiotic” and “medium” alone controls were included. […], Pseudomonas aeruginosa ATCC 27853, Staphylococcus aureus ATCC 29213, Enterococcus faecalis ATCC 29212, Streptococcus pneumonia ATCC 49619 and Lacticaseibacillus paracasei ATCC 334 were used as quality control organisms. The plates were incubated for 24-48 hours under microaerophilic conditions. […] The strains were classified as susceptible or resistant using the microbiological cut offs established by EFSA (35).

[2] = test system: L. reuteri growth; conditions: EFSA guideline species cut-off for L. reuteri; cited from earlier work

Compound | Minimum inhibitory concentration (MIC), L. reuteri PTA-126787 [1] | Minimum inhibitory concentration (MIC), L. reuteri PTA-126788 [1] | EFSA microbiological cut off values for L. reuteri [2]
CC1(C)S[C@@H]2[C@H](NC(=O)[C@H](N)c3ccccc3)C(=O)N2[C@H]1C(=O)O [Ampicillin] | 1 | 1 | 2
O=C(N[C@H](CO)[C@H](O)c1ccc([N+](=O)[O-])cc1)C(Cl)Cl [Chloramphenicol] | 2 | 2 | 4
CCC[C@@H]1C[C@@H](C(=O)N[C@@H]([C@H]2O[C@H](SC)[C@H](O)[C@@H](O)[C@H]2O)[C@H](C)Cl)N(C)C1 [Clindamycin] | ≥0.06 | ≥0.06 | –
CC[C@H]1OC(=O)[C@H](C)[C@@H](O[C@H]2C[C@@](C)(OC)[C@@H](O)[C@H](C)O2)[C@H](C)[C@@H](O[C@@H]2O[C@H](C)C[C@H](N(C)C)[C@H]2O)[C@](C)(O)C[C@@H](C)C(=O)[C@H](C)[C@@H](O)[C@]1(C)O [Erythromycin] | 0.12 | 0.12 | 1
NC[C@H]1O[C@H](O[C@H]2[C@H](O)[C@@H](O[C@H]3O[C@H](CO)[C@@H](O)[C@H](N)[C@H]3O)[C@H](N)C[C@@H]2N)[C@H](O)[C@@H](O)[C@@H]1O [Kanamycin] | 16 | 16 | –
[H]/N=C(/N)N[C@H]1[C@H](O)[C@@H](O)[C@H](O[C@@H]2O[C@@H](C)[C@](O)(C=O)[C@H]2O[C@@H]2O[C@@H](CO)[C@H](O)[C@@H](O)[C@@H]2NC)[C@@H](N/C(N)=N\[H])[C@@H]1O [Streptomycin] | 8 | 8 | 64
CN(C)[C@@H]1C(O)=C(C(N)=O)C(=O)[C@@]2(O)C(O)=C3C(=O)c4c(O)cccc4[C@@](C)(O)[C@H]3C[C@@H]12 [Tetracycline] | 32/64 | 32/64 | –
Gentamicin | 1 | 1 | 8

Reference: US20260137736A1, “PROBIOTIC LACTOBACILLUS STRAIN COMPOSITIONS AND APPLICATIONS THEREFOR INCLUDING FOR LEAKY GUT AND INFLAMMATION” (priority 2021, published 2026)
